Results as given in ChEMBL document CHEMBL1130361, “Homology modeling of the ampa receptor: A quantitative predictive tool for the design of novel antagonists” (Bioorg Med Chem Lett, 1997).

Target: Glutamate receptor ionotropic AMPA (Homo sapiens, UniProt P42261+P42262+P42263+P48058)
Description: Binding affinity against AMPA receptor using [3H]- AMPA radioligand

| SMILES | IC50 [nM] |
| --- | --- |
| CCN1CCc2c([N+](=O)[O-])cc3[nH]c(=O)c(=O)[nH]c3c2C1 | 166 |
| CC(C)N1CCc2c([N+](=O)[O-])cc3[nH]c(=O)c(=O)[nH]c3c2C1 | 153 |
| COC(=O)c1cc2nc(O)c(O)nc2c2c1CN(C)CC2 | 44000 |
| O=[N+]([O-])c1ccc2nc(O)c(O)nc2c1 | 2000 |
| C[C@@]12CC[C@H](CS(=O)(=O)c3nc[nH]n3)C[C@]1(C)CC(C(=O)O)NC2 (some centres not stated) | 630 |
| CN1CCc2c([N+](=O)[O-])cc3[nH]c(=O)c(=O)[nH]c3c2C1 | 80 |
| C[C@@]12CC[C@H](CCc3nnn[nH]3)C[C@]1(C)CC(C(=O)O)NC2 (some centres not stated) | 1350 |
| CN1CCc2c(-c3ccc([N+](=O)[O-])cc3)cc3c(c2C1)NC(=O)/C3=N\O | 150 |
| CN1Cc2c(S(=O)(=O)N(C)C)cc3c(N=O)c(O)[nH]c3c2C1 | 700 |
| C[C@@]12CC[C@H](CSc3nn[nH]n3)C[C@]1(C)CC(C(=O)O)NC2 (some centres not stated) | 580 |
| Oc1nc2ccc3c(c2nc1O)CCCN3 | 24000 |
| O=C1Nc2c(ccc3c2CCCC3)/C1=N/O | 7200 |
